This is an account of results in ChEMBL document CHEMBL3627711, “Highly Substituted Cyclopentane-CMP Conjugates as Potent Sialyltransferase Inhibitors” (J Med Chem, 2015).

The structures appear in SMILES notation. Values joined by “and” are separate entries in the source; they are usually repeats but may differ in a detail not shown here. Equal entries are not always repeated.

The target in experiment [1] is T1, Beta-galactoside alpha-2,6-sialyltransferase 1 (Homo sapiens) (UniProt P15907).
T1 sequence (whole entry): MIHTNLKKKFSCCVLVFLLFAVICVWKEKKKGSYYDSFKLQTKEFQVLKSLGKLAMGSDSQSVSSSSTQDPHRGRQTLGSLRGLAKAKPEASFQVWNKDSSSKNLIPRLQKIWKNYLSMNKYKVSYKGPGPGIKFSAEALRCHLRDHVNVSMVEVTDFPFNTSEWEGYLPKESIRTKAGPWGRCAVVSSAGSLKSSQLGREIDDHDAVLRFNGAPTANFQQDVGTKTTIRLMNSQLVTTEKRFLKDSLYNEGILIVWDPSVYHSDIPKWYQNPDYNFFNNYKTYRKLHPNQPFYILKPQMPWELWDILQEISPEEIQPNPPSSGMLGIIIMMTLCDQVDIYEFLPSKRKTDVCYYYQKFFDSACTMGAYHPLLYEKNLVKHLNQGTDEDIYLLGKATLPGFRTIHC
The experiment in a line: Inhibition of human recombinant ST6Gal-1 assessed as trisaccharide formation using CMP-Neu5Ac and p-nitrophenyl LacNAc as donar and acceptor at 10 uM by RP-HPLC analysis.

In experiment [2] the target is T2, Beta-galactoside alpha-2,6-sialyltransferase 1 (Homo sapiens, UniProt P15907).
T2 sequence (P15907 whole entry): T1 sequence (whole entry)
The experiment in a line: Competitive inhibition of human recombinant ST6Gal-1 using CMP-Neu5Ac and p-nitrophenyl LacNAc as donar and acceptor by Lineweaver-Burk double reciprocal plot analysis.

For experiment [3], the target named is T1, Beta-galactoside alpha-2,6-sialyltransferase 1 (Homo sapiens). The experiment is described as follows: Ratio of CMP-Neu5Ac Km to compound Ki for human recombinant ST6Gal-1.
Experiment [4] is described as follows: Inhibition of rat alpha-2,6-sialyltransferase.

A word on the inhibition: it is the percentage by which the read-out fell short of the control. As usually defined, the Ki is the equilibrium dissociation constant of an inhibitor or competing ligand from its target.

Regarding `CC(=O)NC[C@@H]1C[C@@H](C(OP(=O)(O)OC[C@H]2O[C@@H](n3ccc(N)nc3=O)[C@H](O)[C@@H]2O)P(=O)(O)O)C[C@H]1OCc1ccccc1` (stereo partly drawn), the inhibition in experiment [1] is 46.3% and 70.8%. The Ki in experiment [2] was determined as 865 nM. In addition, in experiment [3], the Ratio turned out to be 48.1.

Consider `Nc1ccn([C@@H]2O[C@H](COP(=O)(O)OC(c3cccc(Oc4ccccc4)c3)P(=O)(O)O)[C@@H](O)[C@H]2O)c(=O)n1` (stereo partly drawn), for which the inhibition in experiment [1] was 98.1%. In experiment [2], the inhibition constant Ki was 19 nM. Also, the Ratio in experiment [3] was determined as 2190. Take `CC(=O)N[C@H]1[C@H](Oc2ccccc2)OC(C(OP(=O)(O)OC[C@H]2O[C@@H](n3ccc(N)nc3=O)[C@H](O)[C@@H]2O)P(=O)(O)O)=C[C@@H]1O` (stereo partly drawn): in experiment [4], the Ki was 29 nM. With `Nc1ccn([C@@H]2O[C@H](COP(=O)(O)OC(C3CCCC3)P(=O)(O)O)[C@@H](O)[C@H]2O)c(=O)n1` (stereo in doubt; 2l), in experiment [1], the inhibition amounted to 12.8%.

With `Nc1ccn([C@@H]2O[C@H](COP(=O)(O)OC(C3CCCC3)P(=O)(O)O)[C@@H](O)[C@H]2O)c(=O)n1` (stereo in doubt; 2s) [listing 1 of 2 here], in experiment [2], the Ki was found to be 5850 nM.

As to `Nc1ccn([C@@H]2O[C@H](COP(=O)(O)OC(C3CCCC3)P(=O)(O)O)[C@@H](O)[C@H]2O)c(=O)n1` (stereo in doubt; 2s) [listing 2 of 2 here], the inhibition in experiment [1] is 43.2%. The Ratio in experiment [3] amounted to 7.1. As to `Nc1ccn([C@@H]2O[C@H](COP(=O)(O)OC([C@H]3C[C@@H](O)[C@@H](O)C3)P(=O)(O)O)[C@@H](O)[C@H]2O)c(=O)n1` (stereo in doubt; 3l), the inhibition in experiment [1] was 13%. Still for that read-out and setting: as for `Nc1ccn([C@@H]2O[C@H](COP(=O)(O)OC([C@H]3C[C@@H](O)[C@@H](O)C3)P(=O)(O)O)[C@@H](O)[C@H]2O)c(=O)n1` (stereo in doubt; 3s), the figure is 31%. Still for that read-out and setting: then `CC(=O)N[C@H]1C[C@H](C(OP(=O)(O)OC[C@H]2O[C@@H](n3ccc(N)nc3=O)[C@H](O)[C@@H]2O)P(=O)(O)O)C[C@H]1O` (stereo in doubt; 4Sl), with 9.99%.

Regarding `CC(=O)N[C@H]1C[C@H](C(OP(=O)(O)OC[C@H]2O[C@@H](n3ccc(N)nc3=O)[C@H](O)[C@@H]2O)P(=O)(O)O)C[C@H]1O` (stereo in doubt; 4Ss) [listing 1 of 2 here], the Ki in experiment [2] was 4310 nM. In the case of `CC(=O)N[C@H]1C[C@H](C(OP(=O)(O)OC[C@H]2O[C@@H](n3ccc(N)nc3=O)[C@H](O)[C@@H]2O)P(=O)(O)O)C[C@H]1O` (stereo in doubt; 4Ss) [listing 2 of 2 here], in experiment [1], the inhibition stood at 50.3%. Also, in experiment [3], the Ratio was 9.6. `CC(=O)N[C@H]1C[C@@H](C(OP(=O)(O)OC[C@H]2O[C@@H](n3ccc(N)nc3=O)[C@H](O)[C@@H]2O)P(=O)(O)O)C[C@H]1OCc1ccccc1` (stereo in doubt; 5Rl): the inhibition in experiment [1] turned out to be 22.1%. For `CC(=O)N[C@H]1C[C@@H](C(OP(=O)(O)OC[C@H]2O[C@@H](n3ccc(N)nc3=O)[C@H](O)[C@@H]2O)P(=O)(O)O)C[C@H]1OCc1ccccc1` (stereo in doubt; 5Rs) [listing 1 of 2 here], in experiment [2], the Ki worked out at 1510 nM. With `CC(=O)N[C@H]1C[C@@H](C(OP(=O)(O)OC[C@H]2O[C@@H](n3ccc(N)nc3=O)[C@H](O)[C@@H]2O)P(=O)(O)O)C[C@H]1OCc1ccccc1` (stereo in doubt; 5Rs) [listing 2 of 2 here], the inhibition in experiment [1] worked out at 65.9%. The Ratio in experiment [3] stood at 27.6. On to `CC(=O)N[C@H]1C[C@H](C(OP(=O)(O)OC[C@H]2O[C@@H](n3ccc(N)nc3=O)[C@H](O)[C@@H]2O)P(=O)(O)O)C[C@H]1OCc1ccccc1` (stereo in doubt; 5Sl) [listing 1 of 2 here], for which the Ki in experiment [2] is 436 nM. On to `CC(=O)N[C@H]1C[C@H](C(OP(=O)(O)OC[C@H]2O[C@@H](n3ccc(N)nc3=O)[C@H](O)[C@@H]2O)P(=O)(O)O)C[C@H]1OCc1ccccc1` (stereo in doubt; 5Sl) [listing 2 of 2 here], for which the inhibition in experiment [1] was 75.3%. Besides, in experiment [3], the Ratio is 95.5.

Turning to `CC(=O)N[C@H]1C[C@H](C(OP(=O)(O)OC[C@H]2O[C@@H](n3ccc(N)nc3=O)[C@H](O)[C@@H]2O)P(=O)(O)O)C[C@H]1OCc1ccccc1` (stereo in doubt; 5Ss) [listing 1 of 2 here], in experiment [2], the Ki stood at 1630 nM. Consider `CC(=O)N[C@H]1C[C@H](C(OP(=O)(O)OC[C@H]2O[C@@H](n3ccc(N)nc3=O)[C@H](O)[C@@H]2O)P(=O)(O)O)C[C@H]1OCc1ccccc1` (stereo in doubt; 5Ss) [listing 2 of 2 here], for which, in experiment [1], the inhibition amounted to 63.9%. Further, in experiment [3], the Ratio was 25.6. On to `CC(=O)NC[C@@H]1CCC(OP(=O)(O)OC[C@H]2O[C@@H](n3ccc(N)nc3=O)[C@H](O)[C@@H]2O)(P(=O)(O)O)[C@H]1OCc1ccccc1` (stereo in doubt; 48l) [listing 1 of 2 here], for which the Ki in experiment [2] came to 28 nM. For `CC(=O)NC[C@@H]1CCC(OP(=O)(O)OC[C@H]2O[C@@H](n3ccc(N)nc3=O)[C@H](O)[C@@H]2O)(P(=O)(O)O)[C@H]1OCc1ccccc1` (stereo in doubt; 48l) [listing 2 of 2 here], in experiment [1], the inhibition came out at 97.5%. In addition, the Ratio in experiment [3] turned out to be 1490. Regarding `CC(=O)NC[C@@H]1CCC(OP(=O)(O)OC[C@H]2O[C@@H](n3ccc(N)nc3=O)[C@H](O)[C@@H]2O)(P(=O)(O)O)[C@H]1OCc1ccccc1` (stereo in doubt; 48s) [listing 1 of 2 here], the Ki in experiment [2] amounted to 477 nM. For the compound `CC(=O)NC[C@@H]1CCC(OP(=O)(O)OC[C@H]2O[C@@H](n3ccc(N)nc3=O)[C@H](O)[C@@H]2O)(P(=O)(O)O)[C@H]1OCc1ccccc1` (stereo in doubt; 48s) [listing 2 of 2 here], the inhibition in experiment [1] turned out to be 74.1%. Further, the Ratio in experiment [3] worked out at 87.3.
